Reference: publication PMC11123956, “Nobiletin Stimulates Adrenal Hormones and Modulates the Circadian Clock in Mice” (Nutrients, 2024)
Read-outs that look alike come from different tables or passages of the source.

Legend:
Bmal1 mRNA = assay: Real-time RT-PCR of Bmal1 mRNA in peripheral tissues; format: in vivo, mice; settings: after a single treatment
Method: (§1) Male C57BL/6J mice (7 weeks old) were purchased from Charles River Japan (Kanagawa, Japan) and used for the serum hormone assay and RT-PCR. Male ICR mice were purchased from Tokyo Laboratory Animals Science Co., Ltd. (Tokyo, Japan), and female PERIOD2::LUCIFERASE (PER2::LUC) knock-in mice (ICR background) bred at Waseda University were used for blood glucose measurements and in vivo imaging assays, respectively. The mice were all housed under conditions of controlled temperature (23 °C ± 3 °C), humidity (50% ± 20%), and lighting (lights on from 07:00 to 19:00 at Taisho Pharmaceutical Co., Ltd. or from 08:00 to 20:00 at Waseda University). In the 24 h cycle, Zeitgeber time 0 (ZT0) was designated as the time when the lights were turned on, and ZT12 was designated as the time when the lights were turned off. All the mice were given access to food and tap water ad libitum, and nobiletin (10–100 mg/kg; purchased from FUJIFILM Wako Pure Chemical Corporation, Osaka, Japan) was administered by intraperitoneal (i.p.) injection in the vehicle (10 mL/kg body weight) containing 0.5% carboxymethyl cellulose (CMC). Rolipram (PDE4 inhibitor, FUJIFILM Wako Pure Chemical Corporation) and SR1078 (RORα/γ agonist, FUJIFILM Wako Pure Chemical Corporation) were also used for the experiment at 10 mg/kg in 0.5% CMC [12]. Mice were euthanized by rapid decapitation for whole blood samples.
(§2) Figure 3 Nobiletin stimulated adrenaline and corticosterone secretion, and induced acute clock gene expression changes. (A–C) Mice received intraperitoneal injections of control (0.5% CMC) or nobiletin (10 or 100 mg/kg) at ZT3. (A) Serum corticosterone at 1 h after treatment (n = 6 in each). $$$ p < 0.001 by Tukey’s multiple comparisons test. (B) Serum corticosterone and adrenaline at 1, 2, and 4 h after treatment (n = 4 in each). # p < 0.05 vs. control at each time point by Mann–Whitney test; ** p < 0.01 vs. control at each time point by Student’s t-test. (C) Blood glucose changes after treatment (n = 9 in each). Statistics of 2-way repeated ANOVA are indicated on the graph. […]

PDE4B = system: PDE4B; design: method as in PMID 22451408; settings: cited from earlier work
PDE1C = system: PDE1C; design: method as in PMID 22451408; settings: cited from earlier work
corticosterone = settings: cited from earlier work
CRF [1] = system: CRF; design: method as in PMID 9179387; settings: isolated hypothalamic in vitro; cited from earlier work
CRF [2] = system: CRF; design: method as in PMID 9179387; settings: intraperitoneal injection to mice; cited from earlier work
serum corticosterone = assay: Serum corticosterone ELISA after i.p. injection; format: in vivo, mice; settings: 10 mg/kg i.p. at ZT3, 1 h after treatment
Method: (§3) Male C57BL/6J mice (7 weeks old) were purchased from Charles River Japan (Kanagawa, Japan) and used for the serum hormone assay and RT-PCR. Male ICR mice were purchased from Tokyo Laboratory Animals Science Co., Ltd. (Tokyo, Japan), and female PERIOD2::LUCIFERASE (PER2::LUC) knock-in mice (ICR background) bred at Waseda University were used for blood glucose measurements and in vivo imaging assays, respectively. The mice were all housed under conditions of controlled temperature (23 °C ± 3 °C), humidity (50% ± 20%), and lighting (lights on from 07:00 to 19:00 at Taisho Pharmaceutical Co., Ltd. or from 08:00 to 20:00 at Waseda University). In the 24 h cycle, Zeitgeber time 0 (ZT0) was designated as the time when the lights were turned on, and ZT12 was designated as the time when the lights were turned off. […]
(§4) Serum corticosterone, adrenaline, and adreno-corticotropic hormone (ACTH) levels, and corticotropin releasing factor (CRF) in the hypothalamus, were measured using enzyme-linked immunosorbent assay (ELISA). […] Blood glucose levels were measured using a Glucose PILOT kit (Aventir Biotech, LLC, Carlsbad, CA, USA). The range of blood glucose that could be precisely measured with the kit was 20–600 mg/dL. […]

serum adrenaline = assay: Serum adrenaline ELISA after i.p. injection; format: in vivo, mice; settings: 10 mg/kg i.p. at ZT3, 1 h after treatment
Method: as §3, §4

Per1 mRNA = assay: Real-time RT-PCR of Per1 mRNA in peripheral tissues; format: in vivo, mice; settings: stomach and lung, 2 h after 10 mg/kg i.p.
Method: as §1, §2

Per2 mRNA = assay: Real-time RT-PCR of Per2 mRNA in peripheral tissues; format: in vivo, mice; settings: stomach and lung, 2 h after 10 mg/kg i.p.
Method: as §1, with “samples. […]” for “samples.”

adrenaline = system: adrenaline; design: method as in PMID 9245486; settings: intraperitoneal, 40–200 μg/kg; cited from earlier work

In the case of `O=C(Nc1ccc(C(O)(C(F)(F)F)C(F)(F)F)cc1)c1ccc(C(F)(F)F)cc1` [SR1078], the Bmal1 expression (Bmal1 mRNA) is reported as “did not change significantly”.

In the case of `COc1cc(-c2cc(=O)c3c(O)c(OC)c(O)c(OC)c3o2)ccc1O` [Sudachitin], the “inhibition of PDE4B” value (PDE4B) is listed as “inhibit” and the “inhibition of PDE1C” value (PDE1C) is listed as “inhibit”.

In the case of `CCCCn1c(=O)c2c(ncn2CC(C)=O)n(CCCC)c1=O` [denbufylline], the corticosterone secretion (corticosterone; via the HPA system) is given as “promotes corticosterone secretion”, the CRF production (CRF [1]) is given as “significant production of CRF” and the “CRF induction in vivo” value (CRF [2]) is given as “produced CRF induction”.

In the case of `COc1ccc(C2CNC(=O)C2)cc1OC1CCCC1` (stereo not drawn) [rolipram], the corticosterone secretion (serum corticosterone) is reported as “detected”, the adrenaline secretion (serum adrenaline) is reported as “detected” and the “Per1 mRNA changes” value (Per1 mRNA) is reported as “detected”. For the same compound, the “Per2 mRNA changes” value (Per2 mRNA) was “detected”, the Bmal1 expression (Bmal1 mRNA) was “did not change” and the corticosterone secretion (corticosterone; intraperitoneal, 40–200 μg/kg) was “increases”. For the same compound, the serum corticosterone (corticosterone; low dose, 1.6 and 8 μg/kg) was “did not produce serum corticosterone increase”, the adrenaline secretion (adrenaline) was “increases” and the CRF production (CRF [1]) was “significant production of CRF”.
